From US11292788B2, “IL-17 and IFN-gamma inhibition for the treatment of autoimmune diseases and chronic inflammation” (Immunic AG, priority 2017, dated 2022)
Read-outs that look alike come from different tables or passages of the source.

What was measured:
[1] = Microsomal stability: incubation with human liver microsomes, residual parent compound by HPLC-MS/MS; type: in vitro ADME; conditions: human liver microsomes 0.5 mg/ml, compound 1 μM, pH 7.4, 37° C., up to 60 min; read-out: t1/2 hLM
Description: Metabolic stability of compounds of the present invention was determined by incubation with human liver microsomes and subsequent determination of residual amount of the respective compound (“parent compound”) by HPLC-MS/MS.
In order to achieve this, in a final reaction volume of 1000 μl, each compound was incubated at a final concentration of 1 μM with 0.5 mg/ml human liver microsomes (HLM Pool 50 Donors, 20 mg/ml, BD Gentest, #452156, LotNr 88114) in 0.1 M Potassium phosphate buffer at pH 7.4, with a cofactor in form of a NADPH regenerating system (Promega, #V9510) according to the manufacturers' specifications. The final DMSO concentration in each sample was 0.4%. The incubation was performed at 37° C. under shaking conditions (Thermomixer, 1400 rpm) for different time intervals up to 60 min. To stop the reaction, for each time point 200 μl of the reaction were taken out and 200 μl ice-cold acetonitrile was added. Then, the samples were centrifuged (4° C., 14000*g for 15 min). The supernatant was analyzed for residual parent compound concentration and scanned for metabolites using HPLC-MS/MS. By using optimized MS methods for each compound, the peak area under curve for the compound specific signal is determined. The change of the peak areas over the assay time of 60 min resemble the remaining parent compound in % of T0. By these points, a balancing line was set. The half-time, as well as the clearance, can then be calculated on the basis of the slope.

IL-17A = test: Cytokine assay: IL-17A production by human PBMC stimulated with PHA; type: cell-based; conditions: IC50 class, read-out: IL-17A Inhib.
Method in brief: (§1)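 Human donor PBMC (1×10^5 cells/well) were activated with 2 μg/ml PHA and exposed to compounds for 48 h. Supernatant IL-17A, IL-17F and IFN-γ were measured by Luminex or ELISA. Screening used 10, 1, 0.1 and 0.01 μM; IC50 values came from semilogarithmic titrations.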

IL-17F = test: Cytokine assay: IL-17F production by human PBMC stimulated with PHA; type: cell-based; conditions: IC50 class, read-out: IL-17F Inhib.
Method in brief: as §1

INF-γ = test: Cytokine assay: INF-γ production by human PBMC stimulated with PHA; type: cell-based; conditions: IC50 class, read-out: IFN-gamma Inhib.
Method in brief: as §1

`CCC(O)Cn1ncc(-c2onc(-c3c(F)cccc3Cl)c2-c2nccs2)c1C(F)(F)F` (racemic) [Example 6, 1-{4-[3-(2-chloro-6-fluorophenyl)-4-(1,3-thiazol-2-yl)-1,2-oxazol-5-yl]-5-(trifluoromethyl)-1H-pyrazol-1-yl}butan-2-ol] showed a half-life at 1 μM [1] of 10 to 40 min, an IC50 (IL-17A; Homo sapiens, PBMC) of under 50 nM and an IC50 (IL-17F; Homo sapiens, PBMC) of under 50 nM. The IC50 (INF-γ; Homo sapiens, PBMC) was under 50 nM.

Compound `OC(Cn1ncc(-c2onc(-c3c(F)cccc3Cl)c2-c2nccs2)c1C(F)(F)F)C(F)(F)F` (racemic) [Example 7, 3-{4-[3-(2-chloro-6-fluorophenyl)-4-(1,3-thiazol-2-yl)-1,2-oxazol-5-yl]-5-(trifluoromethyl)-1H-pyrazol-1-yl}-1,1,1-trifluoropropan-2-ol] has a half-life at 1 μM [1] of 10 to 40 min, an IC50 (IL-17A; Homo sapiens, PBMC) of under 50 nM and an IC50 (IL-17F; Homo sapiens, PBMC) of under 50 nM. It also gave an IC50 (INF-γ; Homo sapiens, PBMC) of under 50 nM.

In the case of `CC(C)(O)CCn1ncc(-c2onc(-c3c(F)cccc3Cl)c2-c2nccs2)c1C(F)(F)F` [Example 3, 4-(4-(3-(2-chloro-6-fluorophenyl)-4-(thiazol-2-yl)isoxazol-5-yl)-5-(trifluoromethyl)-1H-pyrazol-1-yl)-2-methylbutan-2-ol], the half-life at 1 μM [1] is reported as over 100 min, the IC50 (IL-17A; Homo sapiens, PBMC) is reported as under 50 nM and the IC50 (IL-17F; Homo sapiens, PBMC) is reported as under 50 nM. It also gave an IC50 (INF-γ; Homo sapiens, PBMC) of under 50 nM.

In the case of `C[C@@H](O)Cn1ncc(-c2onc(-c3c(F)cccc3Cl)c2-c2nccs2)c1C(F)(F)F` [Example 4, (2R)-1-(4-(3-(2-chloro-6-fluorophenyl)-4-(thiazol-2-yl)isoxazol-5-yl)-5-(trifluoromethyl)-1H-pyrazol-1-yl)propan-2-ol], the half-life at 1 μM [1] is reported as 10 to 40 min, the IC50 (IL-17A; Homo sapiens, PBMC) is reported as under 50 nM and the IC50 (IL-17F; Homo sapiens, PBMC) is reported as under 50 nM. It also gave an IC50 (INF-γ; Homo sapiens, PBMC) of under 50 nM.

For `C[C@H](O)Cn1ncc(-c2onc(-c3c(F)cccc3Cl)c2-c2nccs2)c1C(F)(F)F` [Example 5, (2S)-1-(4-(3-(2-chloro-6-fluorophenyl)-4-(thiazol-2-yl)isoxazol-5-yl)-5-(trifluoromethyl)-1H-pyrazol-1-yl)propan-2-ol], the half-life at 1 μM [1] was 40 to 100 min, the IC50 (IL-17A; Homo sapiens, PBMC) was under 50 nM and the IC50 (IL-17F; Homo sapiens, PBMC) was 50 to 500 nM. The IC50 (INF-γ; Homo sapiens, PBMC) was under 50 nM.

`CCOC(=O)c1c(-c2c(F)cccc2Cl)noc1-c1cnn(C[C@@H](O)C(F)(F)F)c1C(F)(F)F` [Example 16, ethyl 3-(2-chloro-6-fluorophenyl)-5-{1-[(2R)-3,3,3-trifluoro-2-hydroxypropyl]-5-(trifluoromethyl)-1H-pyrazol-4-yl}-1,2-oxazole-4-carboxylate] gave a half-life at 1 μM [1] of 2 to 9.99 min, an IC50 (IL-17A; Homo sapiens, PBMC) of under 50 nM and an IC50 (IL-17F; Homo sapiens, PBMC) of under 50 nM. For the same compound, the IC50 (INF-γ; Homo sapiens, PBMC) was under 50 nM.

Compound `COC(=O)c1c(-c2ccccc2Cl)noc1-c1cnn([C@H]2C[C@](C)(O)C2)c1C` [Example 18, methyl 3-(2-chlorophenyl)-5-(1-(3-hydroxy-3-methylcyclobutyl)-5-methyl-1H-pyrazol-4-yl)isoxazole-4-carboxylate] has a half-life at 1 μM [1] of over 100 min, an IC50 (IL-17A) of 50 to 500 nM and an IC50 (IL-17F) of under 50 nM. The IC50 (INF-γ) was under 50 nM.

In the case of `COC(=O)c1c(-c2ccccc2Cl)noc1-c1cnn(CCC(C)(C)O)c1C` [Example 19, methyl 3-(2-chlorophenyl)-5-[1-(3-hydroxy-3-methylbutyl)-5-methyl-1H-pyrazol-4-yl]-1,2-oxazole-4-carboxylate], the half-life at 1 μM [1] is reported as over 100 min, the IC50 (IL-17A; Homo sapiens, PBMC) is reported as under 50 nM and the IC50 (IL-17F; Homo sapiens, PBMC) is reported as 50 to 500 nM. The IC50 (INF-γ; Homo sapiens, PBMC) was under 50 nM.

Work on `COC(=O)c1c(-c2c(F)cccc2Cl)noc1-c1cnn(C[C@H](C)O)c1C(F)(F)F` [Example 23, methyl (S)-3-(2-chloro-6-fluorophenyl)-5-(1-(2-hydroxypropyl)-5-(trifluoromethyl)-1H-pyrazol-4-yl)isoxazole-4-carboxylate] yielded a half-life at 1 μM [1] of 10 to 40 min, an IC50 (IL-17A; Homo sapiens, PBMC) of 50 to 500 nM and an IC50 (IL-17F; Homo sapiens, PBMC) of 50 to 500 nM. For the same compound, the IC50 (INF-γ; Homo sapiens, PBMC) was under 50 nM.

For `COC(=O)c1c(-c2cccc(OC)c2Cl)noc1-c1cnn(CCC(C)(C)O)c1C` [Example 25, methyl 3-(2-chloro-3-methoxyphenyl)-5-[1-(3-hydroxy-3-methylbutyl)-5-methyl-1H-pyrazol-4-yl]-1,2-oxazole-4-carboxylate], the half-life at 1 μM [1] was over 100 min, the IC50 (IL-17A; Homo sapiens, PBMC) was under 50 nM and the IC50 (IL-17F; Homo sapiens, PBMC) was under 50 nM. For the same compound, the IC50 (INF-γ; Homo sapiens, PBMC) was under 50 nM.

Compound `Cc1c(-c2onc(-c3ccccc3Cl)c2C(=O)OC2CC2)cnn1[C@H]1C[C@@](C)(O)C1` [Example 53, cyclopropyl 3-(2-chlorophenyl)-5-{5-methyl-1-[3-hydroxy-3-methylcyclobutyl]-1H-pyrazol-4-yl}-1,2-oxazole-4-carboxylate] has a half-life at 1 μM [1] of over 100 min, an IC50 (IL-17A) of under 50 nM and an IC50 (IL-17F) of under 50 nM. It also gave an IC50 (INF-γ; Homo sapiens, PBMC) of under 50 nM.

With `CC(C)(O)Cn1ncc(-c2onc(-c3c(F)cccc3Cl)c2C(=O)OC2CC2)c1C(F)(F)F` [Example 55, cyclopropyl 3-(2-chloro-6-fluorophenyl)-5-[1-(2-hydroxy-2-methylpropyl)-5-(trifluoromethyl)-1H-pyrazol-4-yl]-1,2-oxazole-4-carboxylate] the half-life at 1 μM [1] was 40 to 100 min, the IC50 (IL-17A; Homo sapiens, PBMC) was under 50 nM and the IC50 (IL-17F; Homo sapiens, PBMC) was under 50 nM. The IC50 (INF-γ; Homo sapiens, PBMC) was under 50 nM.

Work on `C[C@@H](O)Cn1ncc(-c2onc(-c3c(F)cccc3Cl)c2C(=O)OC2COC2)c1C(F)(F)F` [Example 58, oxetan-3-yl 3-(2-chloro-6-fluorophenyl)-5-{1-[(2R)-2-hydroxypropyl]-5-(trifluoromethyl)-1H-pyrazol-4-yl}-1,2-oxazole-4-carboxylate] yielded a half-life at 1 μM [1] of 40 to 100 min, an IC50 (IL-17A; Homo sapiens, PBMC) of 50 to 500 nM and an IC50 (IL-17F; Homo sapiens, PBMC) of under 50 nM. For the same compound, the IC50 (INF-γ; Homo sapiens, PBMC) was under 50 nM.

`Cc1c(-c2onc(-c3c(F)cccc3Cl)c2C(=O)OC2CC2)cnn1[C@H]1C[C@@](C)(O)C1` [Example 61, cyclopropyl 3-(2-chloro-6-fluorophenyl)-5-{5-methyl-1-[3-hydroxy-3-methylcyclobutyl]-1H-pyrazol-4-yl}-1,2-oxazole-4-carboxylate] showed a half-life at 1 μM [1] of 40 to 100 min, an IC50 (IL-17A; Homo sapiens, PBMC) of under 50 nM and an IC50 (IL-17F; Homo sapiens, PBMC) of under 50 nM. It also gave an IC50 (INF-γ; Homo sapiens, PBMC) of under 50 nM.

Compound `COc1c(C(=O)NC2CCC2)cccc1-c1noc(-c2cnn(C[C@@H](C)O)c2C(F)(F)F)c1-c1ccncn1` [Example 164, (R)—N-cyclobutyl-3-(5-(1-(2-hydroxypropyl)-5-(trifluoromethyl)-1H-pyrazol-4-yl)-4-(pyrimidin-4-yl)isoxazol-3-yl)-2-methoxybenzamide] has an IC50 (IL-17A; Homo sapiens, PBMC) of 500 to 5000 nM, an IC50 (IL-17F; Homo sapiens, PBMC) of 500 to 5000 nM and an IC50 (INF-γ; Homo sapiens, PBMC) of 500 to 5000 nM.

In the case of `CCNC(=O)c1cccc(-c2noc(-c3cnn(C[C@@H](C)O)c3C(F)(F)F)c2-c2ccncn2)c1OC` [Example 165, (R)—N-ethyl-3-(5-(1-(2-hydroxypropyl)-5-(trifluoromethyl)-1H-pyrazol-4-yl)-4-(pyrimidin-4-yl)isoxazol-3-yl)-2-methoxybenzamide], the IC50 (IL-17A; Homo sapiens, PBMC) is reported as 500 to 5000 nM, the IC50 (IL-17F; Homo sapiens, PBMC) is reported as at least 5000 nM and the IC50 (INF-γ; Homo sapiens, PBMC) is reported as 500 to 5000 nM.

With `C[C@@H](O)Cn1ncc(-c2onc(-c3cccc(C(=O)NC4CCC4)c3)c2-c2ccncn2)c1C(F)(F)F` [Example 166, (R)—N-cyclobutyl-3-(5-(1-(2-hydroxypropyl)-5-(trifluoromethyl)-1H-pyrazol-4-yl)-4-(pyrimidin-4-yl)isoxazol-3-yl)benzamide] the IC50 (IL-17A; Homo sapiens, PBMC) was 500 to 5000 nM, the IC50 (IL-17F; Homo sapiens, PBMC) was at least 5000 nM and the IC50 (INF-γ; Homo sapiens, PBMC) was 500 to 5000 nM.

With `CC(C)NC(=O)c1cccc(-c2noc(-c3cnn(C[C@@H](C)O)c3C(F)(F)F)c2-c2ccncn2)c1` [Example 167, (R)-3-(5-(1-(2-hydroxypropyl)-5-(trifluoromethyl)-1H-pyrazol-4-yl)-4-(pyrimidin-4-yl)isoxazol-3-yl)-N-isopropylbenzamide] the IC50 (IL-17A; Homo sapiens, PBMC) was at least 5000 nM, the IC50 (IL-17F; Homo sapiens, PBMC) was at least 5000 nM and the IC50 (INF-γ; Homo sapiens, PBMC) was 500 to 5000 nM.
